In patent US4228174A, “Clavulanic acid ethers” (priority 1975, dated 1980):
Structures can show the parent of a compound that is named as a salt.

Assays:
[1] = tested on: Klebsiella I.112 infection; test: CD50 of amoxycillin alone and with synergist, oral dosing at 1, 3 and 5 hours; format: in vivo; conditions: (×3) mice, oral at 1, 3 and 5 hours post infection
Protocol: f. CD50 values of amoxycillin alone and together with a salt of O-methylclavulanic acid or O-ethylclavulanic acid against a Klebsiella I.112 infection. The test compounds were administered orally to mice at 1, 3 and 5 hours post inter peritoneal infection.
[In these tests amoxycillin trihydrate equivalent to the stated weights of amoxycillin were used].

[2] = tested on: Staphylococcus aureus Russell; test: Standard MIC test of ampicillin in the presence of compounds of the invention; format: cell-based; conditions: ampicillin alone, read-out: Concentration of ampicillin in the absence of synergist that did not inhibit growth
Protocol: b. When tested in standard MIC tests in combination with ampicillin the compounds of this invention are seen to enhance the effectiveness of the penicillin against various gram-positive and gram-negative organisms such as strains of Staphylococcus aureus Russell, Klebsiella aerogenes, Proteus mirabilis and Escherichia coli: for example the following MIC values against Staphylococcus aureus Russell were obtained for ampicillin in the presence of 1 μg/ml of certain compounds of the invention:
None of the synergists inhibited the growth of the test organism at 5 μg/ml.

Staph. H = test: MIC of ampicillin alone and together with sodium O-methylclavulanate; format: cell-based; conditions: Staphylococcus aureus, 0 μg/ml of sodium O-methylclavulanate
Text: (§1) c. MIC values of ampicillin alone and together with sodium O-methylclavulanate against 3 strains of Straphylococcus aureus and 3 strains of R^+ E. coli

Staph. Russell = test: as above; format: cell-based; conditions: Staphylococcus aureus, 0 μg/ml of sodium O-methylclavulanate
Text: as §1

Staph. M B9 = test: as above; format: cell-based; conditions: Staphylococcus aureus, 0 μg/ml of sodium O-methylclavulanate
Text: as §1

E. coli JT 68 = test: as above; format: cell-based; conditions: Escherichia coli, JT68, 0 μg/ml of sodium O-methylclavulanate
Text: as §1

E. coli JT 39 = test: as above; format: cell-based; conditions: Escherichia coli, JT39, 0 μg/ml of sodium O-methylclavulanate
Text: as §1

E. coli JT 98 = test: as above; format: cell-based; conditions: Escherichia coli, JT98, 0 μg/ml of sodium O-methylclavulanate
Text: as §1

[3] = biological target: T1, Escherichia coli JT4 β-lactamase (Escherichia coli, UniProt P62593); test: β-lactamase inhibition I50; format: biochemical
T1 construct: host or cells: Escherichia coli JT4

[4] = biological target: T2, Staphylococcus aureus Russell β-lactamase (Staphylococcus aureus, UniProt P00807); test: β-lactamase inhibition I50; format: biochemical
T2 construct: host or cells: Staphylococcus aureus Russell

[5] = biological target: Klebsiella aerogenes E70 β-lactamase; test: β-lactamase inhibition I50; format: biochemical
[6] = biological target: T3, Escherichia coli JT410 β-lactamase (Escherichia coli, UniProt P00811); test: β-lactamase inhibition I50; format: biochemical
T3 construct: host or cells: Escherichia coli JT410

[7] = biological target: Pseudomonas aeruginosa β-lactamase; test: β-lactamase inhibition I50; format: biochemical
P. moig, Cr. β-lactamase = test: β-lactamase inhibition I50; format: biochemical
[8] = biological target: T4, Pseudomonas dalgleish β-lactamase (Pseudomonas aeruginosa, UniProt P16897); test: β-lactamase inhibition I50; format: biochemical
T4 construct: host or cells: Pseudomonas aeruginosa Dalgleish

[9] = biological target: Proteus mirabilis C889 β-lactamase; test: β-lactamase inhibition I50; format: biochemical
[10] = Blood levels in mice after oral administration; format: in vivo; conditions: mouse, 20 mg/kg, read-out: Blood level
Protocol: b. Blood levels in mice after oral administration of 20 mg/kg of sodium O-methylclavulanate

[11] = tested on: 3 strains of Straphylococcus aureus and 3 strains of R+ E. coli; test: MIC of sodium O-methylclavulanate alone against each test organism; format: cell-based, Staphylococcus aureus; E. coli; conditions: read-out: MIC of sodium O-methylclavulanate against each test organism
Protocol: as §1
The MIC of sodium O-methylclavulanate against each test organism was in the range 20-40 μg/ml.

[12] = Blood levels in mice after sub-cutaneous administration; format: in vivo; conditions: mouse, sc, 50 mg/kg, read-out: Blood level, mean result for 5 mice; for concentration at 0.5 h: 30 min; for concentration at 0.75 h: 45 min; for concentration at 1 h: 60 min; for concentration at 1.5 h: 90 min
Protocol: a. Blood levels in mice after sub-cutaneous administration of 50 mg/kg of a solution of sodium O-methylclavulanate

[13] = Toxicity in mice, sub-cutaneous administration (LD50); conditions: mouse, in vivo, sc
[14] = tested on: E. coli JT 39 (R+) infection; test: CD50 with sodium O-methylclavulanate or sodium clavulanate as synergist, dosing at 1 and 5 hours; format: in vivo; conditions: (×2) sub-cutaneous at 1 and 5 hours post infection
Protocol: d. […]
The test compounds were administered sub-cutaneously in freshly prepared buffered saline at 1 hour and 5 hours post intra peritoneal infection: […]

[15] = tested on: E. coli JT 39 (R+) infection; test: CD50 of amoxycillin with a salt of O-ethylclavulanic acid or clavulanic acid, similar test dosing at 1, 3 and 5 hours; format: in vivo; conditions: (×3) dosing at 1, 3 and 5 hours post infection
Protocol: (§2) e. CD50 values of amoxycillin alone and together with a salt of O-ethylclavulanate acid against an E. coli JT 39 (R^+) infection. The test compounds were administered to mice sub-cutaneously in freshly prepared buffered saline (0.4 mg/ml) at 1 hour and 5 hours post inter peritoneal infection.
In a similar test dosing at 1, 3 and 5 hours post infection the following results were obtained: […]

[16] = tested on: E. coli JT 39 (R+) infection; test: CD50 of amoxycillin with a salt of O-ethylclavulanic acid or clavulanic acid, dosing at 1 and 5 hours; format: in vivo; conditions: (×2) mice, sub-cutaneous at 1 and 5 hours
Protocol: as §2

[17] = Blood level in test mammals; format: in vivo; conditions: compared with an equivalent amount of the salt of clavulanic acid
[18] = columns Synergist = Salt of clavulanic acid

T2 sequence (P00807 25-281): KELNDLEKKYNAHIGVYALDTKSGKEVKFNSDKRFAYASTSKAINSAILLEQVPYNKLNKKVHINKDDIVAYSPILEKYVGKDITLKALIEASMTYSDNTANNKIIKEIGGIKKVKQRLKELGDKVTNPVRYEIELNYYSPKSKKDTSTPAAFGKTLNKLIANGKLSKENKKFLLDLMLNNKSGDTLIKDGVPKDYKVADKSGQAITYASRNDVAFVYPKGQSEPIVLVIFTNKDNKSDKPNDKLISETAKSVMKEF
T1 sequence (P62593 24-286 limits assumed): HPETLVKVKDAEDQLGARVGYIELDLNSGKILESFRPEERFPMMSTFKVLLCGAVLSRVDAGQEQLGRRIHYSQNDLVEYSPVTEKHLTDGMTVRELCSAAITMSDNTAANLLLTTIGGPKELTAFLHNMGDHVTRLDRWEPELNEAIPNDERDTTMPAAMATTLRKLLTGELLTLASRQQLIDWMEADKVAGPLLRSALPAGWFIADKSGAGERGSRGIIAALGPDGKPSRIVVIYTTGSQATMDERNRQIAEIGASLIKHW
T4 sequence (P16897 18-288): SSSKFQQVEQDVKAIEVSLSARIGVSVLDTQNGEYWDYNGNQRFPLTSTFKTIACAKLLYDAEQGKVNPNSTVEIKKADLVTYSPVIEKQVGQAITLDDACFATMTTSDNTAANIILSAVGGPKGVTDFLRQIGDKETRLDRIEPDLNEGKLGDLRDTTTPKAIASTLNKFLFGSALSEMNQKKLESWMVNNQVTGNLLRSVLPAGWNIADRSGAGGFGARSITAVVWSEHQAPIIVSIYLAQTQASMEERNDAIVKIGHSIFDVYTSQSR
T3 sequence (P00811 20-377): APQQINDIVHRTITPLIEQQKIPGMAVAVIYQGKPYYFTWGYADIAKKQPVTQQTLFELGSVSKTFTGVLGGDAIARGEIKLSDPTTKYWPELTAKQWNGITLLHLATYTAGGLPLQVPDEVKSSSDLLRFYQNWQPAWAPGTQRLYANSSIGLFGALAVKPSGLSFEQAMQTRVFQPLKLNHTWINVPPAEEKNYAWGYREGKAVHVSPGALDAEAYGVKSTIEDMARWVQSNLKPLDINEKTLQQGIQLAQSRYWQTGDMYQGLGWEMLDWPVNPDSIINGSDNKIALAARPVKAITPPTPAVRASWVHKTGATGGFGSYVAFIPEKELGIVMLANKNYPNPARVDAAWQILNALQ

CC1(C)S[C@@H]2[C@H](NC(=O)[C@H](N)c3ccc(O)cc3)C(=O)N2[C@H]1C(=O)O [Amoxycillin]
ED50 [1]: > 1000 mg/kg

CC1(C)S[C@@H]2[C@H](NC(=O)[C@H](N)c3ccccc3)C(=O)N2[C@H]1C(=O)O [Ampicillin, ampicillin]
MIC [2]: > 250 µg/mL | MIC (Staph. H): 640 µg/mL | MIC (Staph. Russell): 80 µg/mL | MIC (Staph. M B9): 640 µg/mL | MIC (E. coli JT 68): 2560 µg/mL | MIC (E. coli JT 39): > 2560 µg/mL | MIC (E. coli JT 98): 1280 µg/mL

COC/C=C1\O[C@@H]2CC(=O)N2[C@H]1C(=O)OC [Example 1, Methyl 9--O--methylclavulanate]
IC50 [3]: 3960 nM | IC50 [4]: 2200 nM | β-lactamase inhibition I50, Klebsiella aerogenes E70 [5]: 0.25 µg/mL | IC50 [6]: 13600 nM | β-lactamase inhibition I50, Pseudomonas aeruginosa [7]: 1.9 µg/mL | β-lactamase inhibition I50, P. moig, Cr. (P. moig, Cr. β-lactamase): 0.68 µg/mL

COC/C=C1\O[C@@H]2CC(=O)N2[C@H]1C(=O)OCc1ccccc1 [Example 2, Benzyl 9-O-methylclavulanate]
IC50 [3]: 330 nM | IC50 [8]: < 231 nM | IC50 [4]: 165 nM | β-lactamase inhibition I50, Klebsiella aerogenes E70 [5]: 0.05 µg/mL | β-lactamase inhibition I50, Proteus mirabilis C889 [9]: < 0.07 µg/mL | β-lactamase inhibition I50, Pseudomonas aeruginosa [7]: 1.4 µg/mL

COC/C=C1\O[C@@H]2CC(=O)N2[C@H]1C(=O)O [Example 3, Sodium 9-O-methylclavulanate]
IC50 [3]: 844 nM | IC50 [4]: 235 nM | β-lactamase inhibition I50, Klebsiella aerogenes E70 [5]: 0.07 µg/mL | β-lactamase inhibition I50, Proteus mirabilis C889 [9]: 0.01 µg/mL | concentration at 0.25 h ([10]; 15 min): 5200 ng/mL | concentration at 0.5 h ([10]; 30 min): 3400 ng/mL | concentration at 0.75 h ([10]; 45 min): 2200 ng/mL | concentration at 1 h ([10]; 60 min): 1200 ng/mL | concentration at 1.5 h ([10]; 90 min): 500 ng/mL | MIC [11]: 20 to 40 µg/mL | concentration at 10 min [12]: 14500 ng/mL | concentration at 20 min [12]: 12800 ng/mL | concentration at 0.5 h [12]: 7900 ng/mL | concentration at 0.75 h [12]: 4100 ng/mL | concentration at 1 h [12]: 1400 ng/mL | concentration at 1.5 h [12]: 480 ng/mL

COC(=O)[C@H]1/C(=C/COCc2ccccc2)O[C@@H]2CC(=O)N21 [Example 4, Methyl 9-O-benzylclavulanate]
IC50 [3]: 2640 nM | IC50 [4]: 16.5 nM | β-lactamase inhibition I50, Klebsiella aerogenes E70 [5]: 0.8 µg/mL

O=C(O)[C@H]1/C(=C/COCc2ccccc2)O[C@@H]2CC(=O)N21 [Example 5, Sodium 9-O-benzylclavulanate]
IC50 [3]: 346 nM | LD50 [13]: > 250 mg/kg | IC50 [8]: 27.7 nM | IC50 [4]: 17.3 nM | β-lactamase inhibition I50, Klebsiella aerogenes E70 [5]: 0.04 µg/mL | β-lactamase inhibition I50, Proteus mirabilis C889 [9]: 0.02 µg/mL

CCOC(=O)COC/C=C1\O[C@@H]2CC(=O)N2[C@H]1C(=O)OCc1ccccc1 [Example 6, Benzyl 9-O-ethoxycarbonylmethylclavulanate]
IC50 [3]: 373 nM | IC50 [4]: 320 nM | β-lactamase inhibition I50, Klebsiella aerogenes E70 [5]: 0.30 µg/mL | β-lactamase inhibition I50, Proteus mirabilis C889 [9]: 1.0 µg/mL

CCOC(=O)COC/C=C1\O[C@@H]2CC(=O)N2[C@H]1C(=O)O [Example 7, Sodium 9-O-ethoxycarbonylmethylclavulanate]
IC50 [3]: 561 nM | IC50 [4]: 154 nM | β-lactamase inhibition I50, Klebsiella aerogenes E70 [5]: 0.034 µg/mL | β-lactamase inhibition I50, Proteus mirabilis C889 [9]: 0.025 µg/mL

N#CCOC/C=C1\O[C@@H]2CC(=O)N2[C@H]1C(=O)O [Example 12, Sodium 9-O-cyanomethylclavulanate]
LD50 [13]: > 250 mg/kg

CC1(C)S[C@@H]2[C@H](NC(=O)[C@H](N)c3ccc(O)cc3)C(=O)N2[C@H]1C(=O)O [Sodium Amoxycillin]
CD50 of Sodium Amoxycillin alone ([14]; columns Synergist = Sodium clavulanate): > 1000 mg/kg | ED50 ([14]; Escherichia coli, sc, columns Synergist = Sodium O-methylclavulanate, read-out: CD50 of Sodium Amoxycillin alone): > 1000 mg/kg | CD50 of Sodium Amoxycillin alone [15, 18]: > 1000 mg/kg | ED50 ([15]; Escherichia coli, in Mus musculus, sc, columns Synergist = Salt of O-ethylclavulanic acid, read-out: CD50 of Sodium Amoxycillin alone): > 1000 mg/kg | CD50 of Sodium Amoxycillin alone [16, 18]: > 1000 mg/kg | ED50 ([16]; Escherichia coli, sc, columns Synergist = Salt of O-ethylclavulanic acid, read-out: CD50 of Sodium Amoxycillin alone): > 1000 mg/kg

O=C(O)[C@H]1/C(=C/CO)O[C@@H]2CC(=O)N21 [Sodium clavulanate, reference compound]
concentration at 10 min [12]: 9300 ng/mL | concentration at 20 min [12]: 8700 ng/mL | concentration at 0.5 h [12]: 2990 ng/mL | concentration at 0.75 h [12]: 1950 ng/mL | concentration at 1 h [12]: 500 ng/mL | concentration at 1.5 h [12]: 90 ng/mL

COC/C=C1\O[C@@H]2CC(=O)N2[C@H]1C(=O)O [salt of O-methylclavulanic acid]
Blood level after administration, in words [17]: more prolonged blood level
